Reference: article PMC7069095, “A cell-permeable peptide-based PROTAC against the oncoprotein CREPT proficiently inhibits pancreatic cancer” (Theranostics, 2020)
Non-standard residues stand in square brackets, D forms with d. Residues, ends and D or L forms follow the SMILES beside them. Hyp = O=C(O)[C@@H]1C[C@@H](O)CN1; Ahx = NCCCCCC(=O)O

How the values were obtained:
[1] = target: T1, ubiquitinated CREPT in Panc-1 cells (Homo sapiens, UniProt Q9NQG5); experiment: Endogenous IP of CREPT with ubiquitin (Co-IP); format: cell-based; details: 10 μM peptide for 24 h
T1 construct: endogenous protein level of CREPT in Panc-1, AsPc-1 and MIA-PaCa-2 cells; endogenous in cells; host or cells: Panc-1, AsPc-1, MIA PaCa-2
T1 sequence (Q9NQG5 1-326): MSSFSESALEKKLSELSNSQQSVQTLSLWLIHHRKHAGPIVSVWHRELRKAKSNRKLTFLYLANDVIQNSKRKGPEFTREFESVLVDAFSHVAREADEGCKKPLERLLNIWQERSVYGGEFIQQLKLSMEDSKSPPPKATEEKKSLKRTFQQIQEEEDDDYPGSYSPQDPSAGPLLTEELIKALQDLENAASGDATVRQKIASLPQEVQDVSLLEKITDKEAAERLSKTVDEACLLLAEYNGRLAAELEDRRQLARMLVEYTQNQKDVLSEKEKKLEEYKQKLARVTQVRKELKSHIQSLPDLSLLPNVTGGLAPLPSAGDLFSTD
Procedure: (§1) For exogenous immunoprecipitation assays, HEK293T cells were plated in 60 mm dishes and then transfected with the indicated plasmids. After 24 h, cells were harvested using RIPA buffer (50 mM Tris-HCl pH 8.0, 2 mM EDTA pH 8.0, 150 mM NaCl, 1% NP-40, 0.5% sodium deoxycholate, 0.1% SDS) with mixed protease inhibitors. Cell lysates were incubated with 2 μg of the indicated antibodies and 30 μL of protein A/G-Sepharose beads at 4 °C overnight. Beads were eluted five times with lysis buffer (50 mM Tris-HCl pH 7.6, 1 mM EDTA pH 8.0, 165 mM NaCl, 0.5% NP-40), and thereafter, a western blot assay was performed to analyze the association by using the indicated antibodies. Western blot was performed as previously reported. Anti-β-actin and anti-Flag antibodies were purchased from Sigma. Anti-Myc antibody was purchased from Santa Cruz Biotechnology. Antibody against CREPT was produced in the laboratory.
In addition, a Co-IP experiment was performed in Panc-1 cells treated with 10 μM PRTC, PRTC-m or PRTC-v for 24 h. […] In the absence of MG132, the level of ubiquitinated CREPT was further increased by PRTC (Figure 6C, compare lane 1 and lane 2).
Figure 6 The degradation of CREPT by PRTC is dependent on its VHL ligand. (A) Immunoblot of CREPT following 24 h incubation with different dosages of PRTC or PRTC-v in Panc-1 cells. (B) Immunoblot of CREPT exposed to 10 μM PRTC or PRTC-v for different time points in Panc-1 cells. (C) Endogenous IP experiment of CREPT with ubiquitin treated with 10 μM PTRC, PTRC-m or PTRC-v in Panc-1 cells. IP: CREPT, IB: Anti-ubiquitin.

[2] = Circular dichroism (CD) spectroscopy; format: physicochemical; details: 0.1 mg/mL in deionized water, room temperature
Procedure: All peptides were dissolved in the deionized water at a final concentration of 0.1 mg/mL. The CD spectra were measured by using a 1 nm bandwidth with a 1 nm step resolution from 190 to 260 nm at room temperature (Jasco spectropolarimeter, Japan). Final spectra were obtained from the average of three parallel scans after subtracting a spectrum of deionized water recorded under the same conditions. Each sample was scanned thrice and the averaged spectrum was smoothed. The helicity were calculated by CDNN 2.1 [59], [60].

[3] = target: T2, endogenous CREPT protein in Panc-1 cells (Homo sapiens, UniProt Q9NQG5); experiment: Western blot of endogenous CREPT (degradation); format: cell-based
T2 construct: endogenous protein level of CREPT in Panc-1, AsPc-1 and MIA-PaCa-2 cells; endogenous in cells; host or cells: Panc-1, AsPc-1, MIA PaCa-2
T2 sequence (Q9NQG5 1-326): T1 sequence (Q9NQG5 1-326)
Procedure: as §1
To address whether PRTC could induce CREPT degradation, we examined the endogenous protein level of CREPT in Panc-1, AsPc-1 and MIA-PaCa-2 cells in the presence of different dosages of PRTC. […] Consistently, treatment with PRTC led to decreases in CREPT protein at different times (Figure 5B, S3A). […] To further visualize the degradation process, we stained the endogenous CREPT protein with an antibody against CREPT in the cells treated with FITC-labeled PRTC.
Figure 5 PRTC induces the ubiquitination and proteasome- dependent degradation of the endogenous CREPT protein. (A) Immunoblot of CREPT following 24 h incubation with different dosages of PRTC or PRTC-m in Panc-1 cells. (B) Immunoblot of CREPT exposed to 10 μM PRTC or PRTC-m for different times in Panc-1 cells. (C) Western blot analysis of CREPT following 24 h incubation with 10 μM PTRC in Panc-1 cells. MG132 is an inhibitor of proteasome activity. (D) Immunofluorescence visualization of Panc-1 cells after treatment with PRTC for 24 h. Cells were stained with anti-CREPT antibody. Scale bars, 20 μm.

With `CC[C@H](C)[C@H](N)C(=O)N[C@@H](Cc1ccc(O)cc1)C(=O)N1C[C@H](O)C[C@H]1C(=O)N[C@@H](C)C(=O)N[C@@H](CC(C)C)C(=O)NCCCCCC(=O)N[C@@H](CCCCN)C(=O)N[C@@H](CC(=O)O)C(=O)N[C@H](C(=O)N[C@@H](CC(C)C)C(=O)N[C@@H](CO)C(=O)N[C@@H](CCC(=O)O)C(=O)N[C@@H](CCCCN)C(=O)N[C@@H](CCC(=O)O)C(=O)N[C@@H](CCCCN)C(=O)N[C@@H](CCCCN)C(=O)N[C@@H](CC(C)C)C(=O)N[C@@H](CCC(=O)O)C(=O)N[C@@H](CCC(=O)O)C(=O)N[C@@H](Cc1ccc(O)cc1)C(=O)N[C@@H](CCCCN)C(=O)N[C@@H](CCC(N)=O)C(=O)N[C@@H](CCCCN)C(=O)N[C@@H](CC(C)C)C(=O)N[C@@H](C)C(=O)N[C@@H](CCCNC(=N)N)C(=O)N[C@H](C(=O)N[C@@H](CCCNC(=N)N)C(=O)N[C@@H](CCCNC(=N)N)C(=O)N[C@@H](CCCNC(=N)N)C(=O)N[C@@H](CCCNC(=N)N)C(=O)N[C@@H](CCCCN)C(=O)O)C(C)C)C(C)C` [PRTC] (H-IY[Hyp]AL[Ahx]KDVLSEKEKKLEEYKQKLARVRRRRK-OH; N-terminus and C-terminus assumed) the CREPT protein level ([1]; Co-IP experiment) was “significantly decreased”, the “ubiquitinated CREPT proteins” value ([1]; IP: CREPT, IB: anti-ubiquitin) was “increased” and the “secondary structure by CD spectrum” value [2] was “α-helix structure”. For the same molecule, the Helicity ([2]; 190 to 260 nm, average of three scans, calculated by CDNN 2.1) was 50.1%, the “CREPT protein level at different times” value ([3]; 10 μM or 20 μM peptide) was “decreases” and the “CREPT protein level upon different dosages” value ([3]; 24 h incubation) was “dramatically decreased”.
